Where two headings read alike, the source gives them in different places. Bounds are passed on as bounds.

As a reminder, the IC50 is the point on the concentration scale where inhibition reaches its midpoint. High values mean a need for much substance, low ones inhibition by little substance. One may read the EC50 as the concentration giving half of the maximal effect.

Assay type in all cases: cell-based, human
Experiment [1] has as its system pERK in NCI-H2122 cells (KRAS-G12C). The experiment is described as follows: Phospho-ERK inhibition (AlphaLISA), NCI-H2122. The settings on record: for IC50: NCI-H2122; for NCI-H2122 pERK % Ymin: NCI-H2122, value in parentheses. The method, then: (§1) All cancer cell lines (A375, A101D, A2058, RKO, HT29 SK-MEL 30, IPC298, HepG2, HCT-116, Lovo, SWV620, SW480, NCI-H358, NCI-H2122, Calu-6, NCIH2087, NCIH1755, NCIH1666 and Mewo) were obtained from ATCC and cultured in RPMI-1640 medium (Gibco) supplemented with 5% heat inactivated fetal bovine serum (FBS, Wisent) at 37° C. under 5% CO2. Cells were maintained in T175 flasks (Greiner). They were passaged by removing the culture medium, washing once in 10 mL of room temperature Phosphate Buffered Saline (PBS; Wisent) and incubating at 37° C. with 2 mL of 0.05% Trypsin (Thermo-Fisher). Trypsin was then inactivated by adding complete growth medium and the cells were then replated in a T175 culture dish at the appropriate dilution. All cell lines were routinely tested for mycoplasma contamination. Tissue type and mutational status of each cell line can be found in Table B.
(§2) AlphaLISA® SureFire® Ultra™ p-ERK 1/2 (Thr202/Tyr204) analysis was conducted on cells plated in 100 μL of complete RPMI-1640 growth medium in 96-well flat-bottomed transparent dishes (Costar) at a density indicated in Table C. Cells were maintained overnight at 37° C. under 5% CO2 before treatment with compounds' dilution series for one hour. The cell density in cells/cm^2 corresponds to cell number divided by the area of one well of a 96-well plate ([…]).
(§3) In a dilution series 100 μL/well of test substance dilution prepared in complete RPMI-1640 growth media was added to the cells. The dilution series is selected so that ten concentrations cover a range from 10 μM to 0.33 nM. If necessary the initial concentration of 10 μM is increased to 100 μM or lowered to 1 μM (as in the case of A375 and H1666 cells, which are generally more sensitive to the compounds) and further dilution is carried out accordingly. The final concentration of DMSO in the assay is set at 0.5%.
(§4) After treatment, media was removed and cells were lysed in 50 μL of 1× AlphaScreen Ultra Lysis Buffer (Perkin Elmer). The AlphaLISA® SureFire® Ultra™ p-ERK 1/2 (Thr202/Tyr2O4) (PerkinElmer) reactions were performed with 5 μL of cell lysate according to the manufacturer's specifications in 384-well proxyplates (Perkin Elmer) followed by overnight incubation of the reactions at room temperature in a humidified chamber. After completion of the reactions, the signals were recorded on an EnVision plate reader (Perkin Elmer) using built in AlphaLISA® settings.
(§5) The effect of each compound dilution on the pERK signal was expressed in % inhibition and calculated as follows. An internal 100% inhibition control ([…] trametinib, cat #HY-10999; MedChem Express; CAS #871700-17-3) was included in each plate and used as a measure of pERK background. First, the value obtained for trametinib was subtracted from each data point. The average of DMSO (vehicle) controls (set as 0% inhibition) was established and used to calculate % inhibition: % inhibition=100*(1-((pERK signalcompound)/(pERK signalDMSO)))
(§6) The ability of each compound to inhibit pERK signal was expressed as an IC50 value obtained by plotting the inhibition values for each data point of a dilution series and fitting the obtained curves using a log(agonist) versus response-variable slope (four parameters) function using GraphPadPrism (V7.0) or Dotmatics Screening Ultra platform.
(§7) When present, paradoxical pERK induction is inferred from the negative % inhibition values observed in the pERK IC50 curves of a compound.
(In general: Alpha assays give light when donor and acceptor beads are brought close together.)

The test system of a further experiment is HepG2 cells (NRAS-Q61L). Nature of the experiment: Proliferation inhibition (CellTiter-Glo), HepG2. The following applies: HepG2, 3 days, read-out: HepG2 Prolif. EC50. The method, then:
as §1
(§8) CellTiter-Glo® viability analysis was conducted on cells plated in 100 μL of complete RPMI-1640 growth medium in 96-well flat-bottomed white opaque plates (Greiner or Croning) at a density indicated in Table E (for each CCL, number of cells plated per well of a 96-well plate to perform the CellTiter-Glo® cell viability assay). The cell density in cells/cm^2 would correspond to cell number divided by the area of one well of a 96-well plate (0.32 cm^2). […]
(§9) After 3 days of incubation, the growth media were removed by aspiration and 60 μL of diluted CellTiter-Glo® reagent (10 μL CellTiter-Glo® reagent+50 μL of PBS) was added to each well. […] Luminescence signals were then acquired on a Synergy Neo2 plate reader (Biotek).
(§10) The effect of each compound dilution on the proliferation of cancer cell lines was expressed in % inhibition and calculated as follows. […]
(§11) The ability of each compound to inhibit proliferation was expressed as a EC50 value obtained by plotting the effect values for each data point of a dilution series and fitting the obtained curves using a log(agonist) versus response-variable slope (four parameters) function using GraphPadPrism (V7.0) or Dotmatics Screening Ultra platform.

Experiment [2] relates to pERK in Mewo cells (NF1 LOF). The experiment is described as follows: Phospho-ERK inhibition (AlphaLISA), Mewo. The following applies: for Mewo pERK % Ymin: value in parentheses. As for the experimental part: as §1, §2, §3, §4, §5, §6, §7
For experiment [3], the system named is pERK in Lovo cells (KRAS-G13D). Nature of the experiment: Phospho-ERK inhibition (AlphaLISA), Lovo. The following applies: for Lovo pERK % Ymin: value in parentheses. As for the experimental part: as §1, §2, §3, §4, §5, §6, §7
Experiment [4] deals with pERK in SW620 cells (KRAS-G12V). The experiment is described as follows: Phospho-ERK inhibition (AlphaLISA), SW620. The settings on record: for SW620 pERK % Ymin: SW620, value in parentheses. The method, then: as §1, §2, §3, §4, §5, §6, §7
The test system of a further experiment is HT29 cells (BRAF V600E). The experiment is described as follows: Proliferation inhibition (CellTiter-Glo), HT29. The settings on record: HT-29, 3 days, read-out: HT-29 Prolif. EC50. The method, then:
as §1, §8, §9, §10, §11

Take `Nc1cccc2c1ncn2-c1ccc2ncnc(Nc3c(F)ccc(NS(=O)(=O)c4cccc(Cl)c4Cl)c3F)c2n1` [Example 99]: the 50% inhibitory concentration (IC50) in experiment [1], in experiment [2] (Mewo), in experiment [3] (Lovo) and in experiment [4] (SW620) was 0.03 to 0.3 µM in each case. Also, the “NCI-H2122 pERK % Ymin” value in experiment [1] is listed as −3%. Moreover, the EC50 with HepG2 cells (NRAS-Q61L) and in the experiment with HT29 cells (BRAF V600E) was less than 0.03 µM throughout. Further, the “Mewo pERK % Ymin” value in experiment [2] (Mewo) is given as −7%. Moreover, the “Lovo pERK % Ymin” value in experiment [3] (Lovo) is on record as −15%. Moreover, the “SW620 pERK % Ymin” value in experiment [4] was −11%.

For `CC1(O)CCN(c2cccc3c2ncn3-c2ccc3ncnc(Nc4c(F)ccc(NS(=O)(=O)c5cccc(Cl)c5Cl)c4F)c3n2)CC1` [Example 524], the IC50 in experiment [1], in experiment [2] (Mewo), in experiment [3] (Lovo) and in experiment [4] (SW620) was 0.03 to 0.3 µM each time. Also, the “NCI-H2122 pERK % Ymin” value in experiment [1] was 13%. Besides, the EC50 with HepG2 cells (NRAS-Q61L) and with HT29 cells (BRAF V600E) was less than 0.03 µM each time. For the same compound, the “Mewo pERK % Ymin” value in experiment [2] (Mewo) was −5%. The “Lovo pERK % Ymin” value in experiment [3] (Lovo) was −5%. Further, the “SW620 pERK % Ymin” value in experiment [4] is −4%.

Take `Cc1ccc2c(Nc3cccc(Cl)c3F)nccc2c1NC(=O)c1csc2c(N)ncnc12` [Belvarafenib, reference compound]: the IC50 in experiment [1] (Homo sapiens) is 0.03 to 0.3 µM; in experiment [2] (Homo sapiens, MeWo), 0.03 to 0.3 µM; in experiment [3] (Homo sapiens, LoVo), less than 0.03 µM; in experiment [4] (Homo sapiens, SW-620), 0.03 to 0.3 µM. Also, in experiment [1], the “NCI-H2122 pERK % Ymin” value is listed as −9%. For the same compound, the concentration for a half-maximal effect (EC50) is less than 0.03 µM in the experiment with HepG2 cells (NRAS-Q61L) (Homo sapiens, 72 h) and less than 0.03 µM in the experiment on HT29 cells (BRAF V600E) (Homo sapiens, 72 h). In experiment [2] (Mewo), the “Mewo pERK % Ymin” value is recorded as −116%. Moreover, in experiment [3] (Lovo), the “Lovo pERK % Ymin” value is given as −12%. For the same compound, the “SW620 pERK % Ymin” value in experiment [4] was −151%.
